Measured values reported in ChEMBL document CHEMBL1152079, “Synthesis and biological evaluation of novel 2-vinyl carbapenems. Remarkable DHP-1 stability of 1-substituted analogs” (1996).
In brackets after ≈: the same amount, converted by molar mass.

What was measured:
Proteus vulgaris = test: Compound was tested for its minimal inhibitory concentration against Proteus vulgaris IAM 1025; assay type: functional
Mus musculus [1] = test: Percent urinary recovery was measured in mice after subcutaneous administration at dose 20 mg/kg.; assay type: functional, organism-based; parameters: dose 20 mg/kg; details: Urine
Staphylococcus aureus [2] = test: Compound was tested for its minimal inhibitory concentration against Staphylococcus aureus 3004 (Methicillin resistant S. aureus); assay type: functional
Pseudomonas aeruginosa = test: Compound was tested for its minimal inhibitory concentration against Pseudomonas aeruginosa 26; assay type: functional
[3] = biological target: T1, Dipeptidase 1 (Sus scrofa) (UniProt P22412); test: Susceptibility relative to imipenem was measured against Swine renal Dehydropeptidase-1
T1 sequence (whole entry): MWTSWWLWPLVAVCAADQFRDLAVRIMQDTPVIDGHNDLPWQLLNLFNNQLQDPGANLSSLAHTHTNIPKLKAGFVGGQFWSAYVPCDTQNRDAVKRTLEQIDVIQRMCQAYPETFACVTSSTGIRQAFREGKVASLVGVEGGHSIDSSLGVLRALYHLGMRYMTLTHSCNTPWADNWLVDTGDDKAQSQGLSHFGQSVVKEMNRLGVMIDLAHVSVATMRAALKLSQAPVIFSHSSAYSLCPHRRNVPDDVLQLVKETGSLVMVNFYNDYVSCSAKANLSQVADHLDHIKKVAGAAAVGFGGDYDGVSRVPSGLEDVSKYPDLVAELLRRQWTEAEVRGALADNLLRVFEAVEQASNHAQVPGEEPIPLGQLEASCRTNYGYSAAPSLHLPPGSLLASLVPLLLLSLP

Escherichia coli = test: Compound was tested for its minimal inhibitory concentration against Escherichia coli NIHJ JC-2; assay type: functional
Staphylococcus aureus [4] = test: Compound was tested for its minimal inhibitory concentration against Staphylococcus aureus 209 JC-1; assay type: functional
Mus musculus [5] = species: Mus musculus; test: Susceptibility relative to meropenem was measured against mouse DHP-1.
Cercopithecidae = test: Susceptibility relative to meropenem was measured against monkey DHP-1.
[6] = tested on: Dipeptidase 1 (Canis lupus familiaris); test: Susceptibility relative to meropenem was measured against dog Dehydropeptidase-1
[7] = biological target: Dipeptidase 1 (Rattus norvegicus) (UniProt P31430); test: Susceptibility relative to meropenem was measured against rat Dehydropeptidase-1
[8] = biological target: Dipeptidase 1 (Homo sapiens) (UniProt P16444); test: Susceptibility relative to meropenem was measured against human Dehydropeptidase-1
Oryctolagus cuniculus = species: Oryctolagus cuniculus; test: Susceptibility relative to meropenem was measured against rabbit DHP-1.

Chain of Dipeptidase 1 (Homo sapiens) (P16444 whole entry, looked up): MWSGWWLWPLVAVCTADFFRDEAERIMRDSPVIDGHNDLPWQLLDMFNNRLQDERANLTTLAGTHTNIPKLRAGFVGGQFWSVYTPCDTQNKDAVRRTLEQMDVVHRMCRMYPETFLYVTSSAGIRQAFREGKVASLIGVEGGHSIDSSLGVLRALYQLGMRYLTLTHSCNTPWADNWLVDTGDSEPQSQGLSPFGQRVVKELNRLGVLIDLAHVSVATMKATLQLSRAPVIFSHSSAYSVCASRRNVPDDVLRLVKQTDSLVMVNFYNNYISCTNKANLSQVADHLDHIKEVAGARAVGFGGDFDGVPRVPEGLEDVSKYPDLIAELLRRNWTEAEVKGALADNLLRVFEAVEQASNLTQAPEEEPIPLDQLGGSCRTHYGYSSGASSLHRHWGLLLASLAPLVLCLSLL
Chain of Dipeptidase 1 (Rattus norvegicus) (P31430 whole entry, looked up): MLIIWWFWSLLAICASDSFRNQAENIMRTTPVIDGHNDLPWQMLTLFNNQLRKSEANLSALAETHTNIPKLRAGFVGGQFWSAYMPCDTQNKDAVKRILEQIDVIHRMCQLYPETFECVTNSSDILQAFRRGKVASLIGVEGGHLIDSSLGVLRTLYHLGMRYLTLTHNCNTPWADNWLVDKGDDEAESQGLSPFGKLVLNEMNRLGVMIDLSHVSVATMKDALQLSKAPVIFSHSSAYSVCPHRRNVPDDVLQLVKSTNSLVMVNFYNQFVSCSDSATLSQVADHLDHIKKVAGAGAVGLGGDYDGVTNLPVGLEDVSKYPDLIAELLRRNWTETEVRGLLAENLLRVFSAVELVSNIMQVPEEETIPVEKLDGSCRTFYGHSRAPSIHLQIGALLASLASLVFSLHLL

CSC/C(=C\[C@@H]1CCCN1)C1=C(C(=O)O)N2C(=O)[C@H]([C@@H](C)O)[C@H]2C1
MIC (Proteus vulgaris): 3.13 µg/mL (≈ 8.88 µM) | Recovery (Mus musculus [1]): 54.3% | MIC (Staphylococcus aureus [2]): 100 µg/mL (≈ 284 µM) | MIC (Pseudomonas aeruginosa): 25 µg/mL (≈ 70.9 µM) | Susceptibility [3]: < 0.006 | MIC (Escherichia coli): 0.78 µg/mL (≈ 2.21 µM) | MIC (Staphylococcus aureus [4]): 0.1 µg/mL (≈ 0.284 µM)

C[C@@H](O)[C@H]1C(=O)N2C(C(=O)O)=C(/C(=C/[C@@H]3CCCN3)CN)C[C@H]12
MIC (Proteus vulgaris): > 100 µg/mL | Recovery (Mus musculus [1]): 52.1% | MIC (Staphylococcus aureus [2]): > 100 µg/mL | MIC (Pseudomonas aeruginosa): > 100 µg/mL | Susceptibility [3]: 0.004 | MIC (Escherichia coli): 100 µg/mL (≈ 311 µM) | MIC (Staphylococcus aureus [4]): 0.78 µg/mL (≈ 2.43 µM)

C[C@@H](O)[C@H]1C(=O)N2C(C(=O)O)=C(/C=C/[C@@H]3CCCN3)C[C@H]12
MIC (Proteus vulgaris): 1.56 µg/mL (≈ 5.34 µM) | Recovery (Mus musculus [1]): 20.2% | MIC (Staphylococcus aureus [2]): > 100 µg/mL | MIC (Pseudomonas aeruginosa): 3.13 µg/mL (≈ 10.7 µM) | Susceptibility [3]: 0.22 | MIC (Escherichia coli): 1.56 µg/mL (≈ 5.34 µM) | MIC (Staphylococcus aureus [4]): 0.1 µg/mL (≈ 0.342 µM)

C[C@@H](O)[C@H]1C(=O)N2C(C(=O)O)=C(SCCNC=N)C[C@H]12.O [IMIPENEM]
MIC (Proteus vulgaris): 3.13 µg/mL | Recovery (Mus musculus [1]): 28.9% | MIC (Staphylococcus aureus [2]): 100 µg/mL | MIC (Pseudomonas aeruginosa): 0.78 µg/mL | Susceptibility [3]: 1 | MIC (Escherichia coli): 0.78 µg/mL | MIC (Staphylococcus aureus [4]): < 0.025 µg/mL

C/C(=C\[C@@H]1CCCN1)C1=C(C(=O)O)N2C(=O)[C@H]([C@@H](C)O)[C@H]2C1
Susceptibility (Mus musculus [5]): 0.45 | Susceptibility (Cercopithecidae): 0.032 | Susceptibility [6]: 0.249 | MIC (Proteus vulgaris): 1.56 µg/mL (≈ 5.09 µM) | Recovery (Mus musculus [1]): 67.8% | MIC (Staphylococcus aureus [2]): 50 µg/mL (≈ 163 µM) | Susceptibility [7]: 0.11 | MIC (Pseudomonas aeruginosa): 3.13 µg/mL (≈ 10.2 µM) | Susceptibility [3]: 0.036 | MIC (Escherichia coli): 0.39 µg/mL (≈ 1.27 µM) | MIC (Staphylococcus aureus [4]): < 0.025 µg/mL | Susceptibility [8]: 0.45 | Susceptibility (Oryctolagus cuniculus): 0.015

C[C@@H](O)[C@H]1C(=O)N2C(C(=O)O)=C(/C=C/[C@@H]3CCCN3)[C@H](C)[C@H]12
MIC (Proteus vulgaris): 6.25 µg/mL (≈ 20.4 µM) | Recovery (Mus musculus [1]): 60.7% | MIC (Staphylococcus aureus [2]): 100 µg/mL (≈ 326 µM) | MIC (Pseudomonas aeruginosa): 3.13 µg/mL (≈ 10.2 µM) | Susceptibility [3]: 0.043 | MIC (Escherichia coli): 0.78 µg/mL (≈ 2.55 µM) | MIC (Staphylococcus aureus [4]): < 0.025 µg/mL

COC/C(=C\[C@@H]1CCCN1)C1=C(C(=O)O)N2C(=O)[C@H]([C@@H](C)O)[C@H]2C1
MIC (Proteus vulgaris): 50 µg/mL (≈ 149 µM) | Recovery (Mus musculus [1]): 64.4% | MIC (Staphylococcus aureus [2]): > 100 µg/mL | MIC (Pseudomonas aeruginosa): 25 µg/mL (≈ 74.3 µM) | Susceptibility [3]: < 0.008 | MIC (Escherichia coli): 0.78 µg/mL (≈ 2.32 µM) | MIC (Staphylococcus aureus [4]): 0.2 µg/mL (≈ 0.595 µM)
